From patent US11015223B2, “Methods for determining response to a hypomethylating agent” (THE REGENTS OF THE UNIVERSITY OF CALIFORNIA, priority 2013, dated 2021)

Tested on: MDS patients
Assay: Response to treatment by IWG response criteria revised in 2006 (CR/PR/HI = responders)
Assay type: in vivo, human
Conditions: for Non-Responders (NR/SD/PD/Died/NE) (%) / Non-Responders (NR/SD/PD/Died/NE) N / Responders (CR/PR/HI) N / Responders (CR/PR/HI) (%): all patients on the treatment
Source text: A total of 213 MDS patients treated azacitidine or decitabine were included in this study. Samples were obtained from patients treated at the Dana-Farber Cancer Institute (n=42), the MD Anderson Cancer Center (n=104), and as part of the DACO-020 (ADOPT) clinical trial of decitabine (n=67). All samples were collected with patient consent under IRB-approved protocols in accordance with the Declaration of Helsinki. There were no significant differences in baseline patient characteristics by treatment site (Table 1).
Response to treatment was assessed using IWG response criteria revised in 2006. Patients with either a complete response (CR), partial response (PR), or hematologic improvement (HI) were considered as ‘responders’ (R, n=100, 47%). whereas patients described as having ‘no response’, ‘stable disease’, ‘progressive disease’, ‘death’ before response assessment, or ‘not evaluable’ were considered ‘non-responders’ (NR, […], 53%).
Categorical variables were compared using a Fisher exact test, while continuous variables were compared using a Wilcoxon rank-sum test. A Cochran-Mantel-Haenszel (CMH) test was used to test for differences in response rate by mutational status controlling for treatment. Unadjusted and adjusted logistic regression models were used to predict response to therapy. A stepwise algorithm for logistic regression was also utilized to determine a final model; candidate variables considered for inclusion were all mutations, treatment, IPSS classification, age, and sex. The Hosmer and Lemeshow goodness-of-fit test was used to assess model fit for logistic regression models. Overall survival was calculated from the time of treatment to the time of death from any cause or was censored at the date last known alive. Unadjusted and adjusted Cox regression models were constructed for overall survival. A stepwise regression algorithm for Cox regression models was used including the same candidate variables as in the logistic regression modeling. Classification trees were also created using the Rpart package in R version 2.11.1 to classify responders based on mutational status. Cross-validation was used for tree pruning. All p-values reported are two-sided and considered significant at the 0.05 level. No adjustments were made for multiple hypothesis testing.

With `Nc1ncn([C@H]2C[C@H](O)[C@@H](CO)O2)c(=O)n1` [decitabine, 5-aza-2′-deoxycytidine] the “Non-Responders (NR/SD/PD/Died/NE) (%)” value was “(53) %”, the “Non-Responders (NR/SD/PD/Died/NE) N” value was 76 N and the “Responders (CR/PR/HI) N” value was 68 N. For the same compound, the “Responders (CR/PR/HI) (%)” value (listed as Dec Alone) was 47%, the “Responders (CR/PR/HI) (%)” value (listed as Decitabine Alone) was “(47) %” and the “Response (%)” value (patients with ASXL1 mutation) was 42%. The “Response N” value (patients with ASXL1 mutation) was 29 N, the “Response (%)” value (patients with ATRX mutation) was 25% and the “Response N” value (patients with ATRX mutation) was 2 N. For the same compound, the “Response (%)” value (patients with BCOR mutation) was 56%, the “Response N” value (patients with BCOR mutation) was 9 N and the “Response (%)” value (patients with CBL mutation) was 11%. The “Response N” value (patients with CBL mutation) was 1 N, the “Response (%)” value (patients with DNMT3A mutation) was 36% and the “Response N” value (patients with DNMT3A mutation) was 8 N. For the same compound, the “Response (%)” value (patients with ETV6 mutation) was 50%, the “Response N” value (patients with ETV6 mutation) was 3 N and the “Response (%)” value (patients with EZH2 mutation) was 44%. The “Response N” value (patients with EZH2 mutation) was 7 N, the “Response (%)” value (patients with IDH1 mutation) was 25% and the “Response N” value (patients with IDH1 mutation) was 2 N. The “Response (%)” value (patients with IDH2 mutation) was 17%, the “Response N” value (patients with IDH2 mutation) was 2 N and the “Response (%)” value (patients with JAK2 mutation) was 40%. For the same compound, the “Response N” value (patients with JAK2 mutation) was 2 N, the “Response (%)” value (patients with KDM3A mutation) was 25% and the “Response N” value (patients with KDM3A mutation) was 2 N. For the same compound, the “Response (%)” value (patients with KDM6B mutation) was 25%, the “Response N” value (patients with KDM6B mutation) was 2 N and the “Response (%)” value (patients with KRAS mutation) was 20%. The “Response N” value (patients with KRAS mutation) was 1 N, the “Response (%)” value (patients with MAML1 mutation) was 54% and the “Response N” value (patients with MAML1 mutation) was 7 N. The “Response (%)” value (patients with NF1 mutation) was 31%, the “Response N” value (patients with NF1 mutation) was 4 N and the “Response (%)” value (patients with NOTCH1 mutation) was 38%. For the same compound, the “Response N” value (patients with NOTCH1 mutation) was 5 N, the “Response (%)” value (patients with NOTCH2 mutation) was 58% and the “Response N” value (patients with NOTCH2 mutation) was 11 N. For the same compound, the “Response (%)” value (patients with NPM1 mutation) was 71%, the “Response N” value (patients with NPM1 mutation) was 5 N and the “Response (%)” value (patients with NRAS mutation) was 73%. For the same compound, the “Response N” value (patients with NRAS mutation) was 11 N, the “Response (%)” value (patients with PHF6 mutation) was 50% and the “Response N” value (patients with PHF6 mutation) was 5 N. The “Response (%)” value (patients with PRPF8 mutation) was 33%, the “Response N” value (patients with PRPF8 mutation) was 3 N and the “Response (%)” value (patients with PTPN11 mutation) was 17%. For the same compound, the “Response N” value (patients with PTPN11 mutation) was 1 N, the “Response (%)” value (patients with RUNX1 mutation) was 53% and the “Response N” value (patients with RUNX1 mutation) was 16 N. For the same compound, the “Response (%)” value (patients with SCAF11 mutation) was 25%, the “Response N” value (patients with SCAF11 mutation) was 2 N and the “Response (%)” value (patients with SF3B1 mutation) was 36%. For the same compound, the “Response N” value (patients with SF3B1 mutation) was 8 N, the “Response (%)” value (patients with SRSF2 mutation) was 56% and the “Response N” value (patients with SRSF2 mutation) was 14 N. The “Response (%)” value (patients with TET2 mutation) was 54%, the “Response N” value (patients with TET2 mutation) was 22 N and the “Response (%)” value (patients with TLR1 mutation) was 71%. The “Response N” value (patients with TLR1 mutation) was 5 N, the “Response (%)” value (patients with TP53 mutation) was 47% and the “Response N” value (patients with TP53 mutation) was 9 N. For the same compound, the “Response (%)” value (patients with U2AF1 mutation) was 50%, the “Response N” value (patients with U2AF1 mutation) was 9 N and the “Response (%)” value (patients with ZRSR2 mutation) was 44%. For the same compound, the “Response N” value (patients with ZRSR2 mutation) was 4 N.

For Decitabine+, the “Non-Responders (NR/SD/PD/Died/NE) (%)” value was “(56) %”, the “Non-Responders (NR/SD/PD/Died/NE) N” value was 15 N and the “Responders (CR/PR/HI) (%)” value was “(44) %”. The “Responders (CR/PR/HI) N” value was 12 N, the “Responders (CR/PR/HI) (%)” value (listed as Dec Plus) was 44% and the “Response (%)” value (patients with ASXL1 mutation) was 50%. For the same compound, the “Response N” value (patients with ASXL1 mutation) was 3 N, the “Response (%)” value (patients with ATRX mutation) was 100% and the “Response N” value (patients with ATRX mutation) was 1 N. For the same compound, the “Response (%)” value (patients with BCOR mutation) was 50%, the “Response N” value (patients with BCOR mutation) was 1 N and the “Response (%)” value (patients with CBL mutation) was 0 (0) %. For the same compound, the “Response N” value (patients with CBL mutation) was 0 (0) N, the “Response (%)” value (patients with DNMT3A mutation) was 67% and the “Response N” value (patients with DNMT3A mutation) was 4 N. The “Response (%)” value (patients with ETV6 mutation) was 0 (0) %, the “Response N” value (patients with ETV6 mutation) was 0 (0) N and the “Response (%)” value (patients with EZH2 mutation) was 0 (0) %. The “Response N” value (patients with EZH2 mutation) was 0 (0) N, the “Response (%)” value (patients with IDH1 mutation) was 0 (0) % and the “Response N” value (patients with IDH1 mutation) was 0 (0) N. For the same compound, the “Response (%)” value (patients with IDH2 mutation) was 0 (0) %, the “Response N” value (patients with IDH2 mutation) was 0 (0) N and the “Response (%)” value (patients with JAK2 mutation) was 0 (0) %. The “Response N” value (patients with JAK2 mutation) was 0 (0) N, the “Response (%)” value (patients with KDM3A mutation) was 0 (0) % and the “Response N” value (patients with KDM3A mutation) was 0 (0) N. For the same compound, the “Response (%)” value (patients with KDM6B mutation) was 100%, the “Response N” value (patients with KDM6B mutation) was 3 N and the “Response (%)” value (patients with KRAS mutation) was 0 (0) %. The “Response N” value (patients with KRAS mutation) was 0 (0) N, the “Response (%)” value (patients with MAML1 mutation) was 75% and the “Response N” value (patients with MAML1 mutation) was 3 N. For the same compound, the “Response (%)” value (patients with NF1 mutation) was 50%, the “Response N” value (patients with NF1 mutation) was 1 N and the “Response (%)” value (patients with NOTCH1 mutation) was 0 (0) %. For the same compound, the “Response N” value (patients with NOTCH1 mutation) was 0 (0) N, the “Response (%)” value (patients with NOTCH2 mutation) was 100% and the “Response N” value (patients with NOTCH2 mutation) was 5 N. For the same compound, the “Response (%)” value (patients with NPM1 mutation) was 100%, the “Response N” value (patients with NPM1 mutation) was 1 N and the “Response (%)” value (patients with NRAS mutation) was 50%. The “Response N” value (patients with NRAS mutation) was 1 N, the “Response (%)” value (patients with PHF6 mutation) was 0 (0) % and the “Response N” value (patients with PHF6 mutation) was 0 (0) N. The “Response (%)” value (patients with PRPF8 mutation) was 0 (0) %, the “Response N” value (patients with PRPF8 mutation) was 0 (0) N and the “Response (%)” value (patients with PTPN11 mutation) was 67%. For the same compound, the “Response N” value (patients with PTPN11 mutation) was 2 N, the “Response (%)” value (patients with RUNX1 mutation) was 75% and the “Response N” value (patients with RUNX1 mutation) was 3 N. For the same compound, the “Response (%)” value (patients with SCAF11 mutation) was 100%, the “Response N” value (patients with SCAF11 mutation) was 2 N and the “Response (%)” value (patients with SF3B1 mutation) was 50%. For the same compound, the “Response N” value (patients with SF3B1 mutation) was 2 N, the “Response (%)” value (patients with SRSF2 mutation) was 50% and the “Response N” value (patients with SRSF2 mutation) was 2 N. For the same compound, the “Response (%)” value (patients with TET2 mutation) was 80%, the “Response N” value (patients with TET2 mutation) was 4 N and the “Response (%)” value (patients with TLR1 mutation) was 67%. The “Response N” value (patients with TLR1 mutation) was 2 N, the “Response (%)” value (patients with TP53 mutation) was 42% and the “Response N” value (patients with TP53 mutation) was 5 N. The “Response (%)” value (patients with U2AF1 mutation) was 0 (0) %, the “Response N” value (patients with U2AF1 mutation) was 0 (0) N and the “Response (%)” value (patients with ZRSR2 mutation) was 0 (0) %. For the same compound, the “Response N” value (patients with ZRSR2 mutation) was 0 (0) N.
